Test results taken from article PMC11148045, “Structural basis for recognition of 26RFa by the pyroglutamylated RFamide peptide receptor” (Cell Discovery, 2024).
No end group written: not given here.

Columns and labels:
[1] = molecular target: T1, KISS1R mutants (Homo sapiens, UniProt Q969F8, E193A/H309A/Q122A); test: KP-10-induced calcium mobilization, receptor mutants; format: cell-based; settings: HEK293, Fluo-4, mean ± S.E.M., n ≥ 3
T1 construct: expressed in transfected cells; host or cells: HEK293, transient transfection by electroporation
T1 sequence (Q969F8 whole entry Q122A/E193A/H309A): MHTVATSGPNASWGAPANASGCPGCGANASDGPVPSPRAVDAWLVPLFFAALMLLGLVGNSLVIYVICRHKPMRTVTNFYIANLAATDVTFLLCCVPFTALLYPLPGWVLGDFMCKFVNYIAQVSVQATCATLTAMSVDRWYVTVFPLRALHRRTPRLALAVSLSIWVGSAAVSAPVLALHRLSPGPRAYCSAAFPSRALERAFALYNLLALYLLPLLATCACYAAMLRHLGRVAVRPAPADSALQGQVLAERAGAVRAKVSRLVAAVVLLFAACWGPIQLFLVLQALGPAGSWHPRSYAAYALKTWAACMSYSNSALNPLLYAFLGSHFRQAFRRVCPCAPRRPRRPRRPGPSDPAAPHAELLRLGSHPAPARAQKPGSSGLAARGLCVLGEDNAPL

[2] = molecular target: T2, KISS1R (WT) (Homo sapiens, UniProt Q969F8); test: KP-10-induced calcium mobilization, wild-type receptor; format: cell-based; settings: HEK293, Fluo-4, mean ± S.E.M., n ≥ 3
T2 construct: expressed in transfected cells; host or cells: HEK293, transient transfection by electroporation
T2 sequence (Q969F8 whole entry, species assumed): as the sequence (Q969F8 whole entry Q122A/E193A/H309A) above, with A122Q, A193E, A309H counted along it

[3] = system: NPY1R and NPY4R; settings: cited from earlier work; for role of hydrogen bond of Tyr36 with Q^5.46 in activity: NPY1R and NPY4R
Excerpt: Specifically, Arg25 and Arg35 in 26RFa and NPY/PP are exposed to a conserved polar environment that includes residues E^45.52, T^5.39, and D/E^6.59 in QRFPR and NPYRs. However, subtle differences exist in the special binding interactions between these arginines and conserved polar residues (Fig. 4d–f). Side chains of Arg35 in NPY/PP form a conserved salt bridge with D^6.59 and a hydrogen bond with T^5.39 (NPY1R and NPY4R) or a salt bridge with E^45.52 (NPY2R) (Fig. 4e, f). In 26RFa, Arg25 retains its salt bridge with E203^45.52 but fails to build a salt bridge with E297^6.59 (Fig. 3b). It is p ... || Phe26 in 26RFa and Tyr36 in NPY/PP show distinct binding characteristics for QRFRP and NPYRs, respectively. […] (Fig. 4e). However, in NPY2R, this hydrogen bond is absent due to the substitution of glutamine with leucine at position 5.46, which lacks a hydrogen bond donor (Fig. 4c, f). Similarly, QRFPR also has a leucine at position 5.46, which cannot form a corresponding hydrogen bond with Phe26 in 26RFa. Furthermore, in contrast to the notable impact of Q^5.46 on the NP ...

[4] = molecular target: T3, PrRPR (WT) (Homo sapiens, UniProt P49683); test: PrRP-20-induced calcium mobilization, wild-type receptor; format: cell-based; settings: HEK293, Fluo-4, mean ± S.E.M., n ≥ 3
T3 construct: expressed in transfected cells; host or cells: HEK293, transient transfection by electroporation
T3 sequence (P49683 whole entry, species assumed): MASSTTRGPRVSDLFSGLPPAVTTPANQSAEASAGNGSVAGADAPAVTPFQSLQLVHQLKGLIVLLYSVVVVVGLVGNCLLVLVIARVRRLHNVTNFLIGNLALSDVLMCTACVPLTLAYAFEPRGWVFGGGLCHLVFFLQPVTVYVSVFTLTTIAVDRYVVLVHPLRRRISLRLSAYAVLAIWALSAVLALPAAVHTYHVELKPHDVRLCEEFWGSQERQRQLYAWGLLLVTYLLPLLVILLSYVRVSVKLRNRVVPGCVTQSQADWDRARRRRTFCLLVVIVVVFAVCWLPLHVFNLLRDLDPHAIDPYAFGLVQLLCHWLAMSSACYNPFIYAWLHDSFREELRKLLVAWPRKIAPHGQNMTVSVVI
Method: (§1) The gene encoding the WT QRFPR, PrPRR, KISS1R, NPFF1R, or NPFF2R was subcloned into the pcDNA3.0 vector with the addition of an N-terminal HA tag. All of the mutations used for functional studies were generated by QuickChange PCR and verified by DNA sequencing.
(§2) HEK293 cells were obtained from ATCC (Manassas, VA, USA) and cultured in DMEM supplemented with 10% (v/v) FBS, 100 mg/L penicillin, and 100 mg/L streptomycin in 5% CO2 at 37 °C. For transient transfection, ~2.5 × 10^6 cells were mixed with 2 µg plasmids in 200 µL transfection buffer, and electroporation was carried out with a Scientz-2C electroporation apparatus (Scientz Biotech, Ningbo, China). The experiments were carried out 24 h after transfection.
For QRFPR, PrRPR, and KISS1R, HEK293 cells transfected with WT receptor or its mutants were seeded at a density of 4 × 10^4 per well into 96-well culture plates and incubated for 24 h at 37 °C in 5% CO2. […] After washing, cells were added with 50 μL HBSS and incubated at room temperature for 10 min, then 25 μL agonist buffer was dispensed into the well using a FlexStation III microplate reader (Molecular Devices), and intracellular calcium change was recorded at an excitation wavelength of 485 nm and an emission wavelength of 525 nm. EC50 and Emax values for each curve were calculated by Prism 8.0 software (GraphPad Software).

[5] = molecular target: T4, PrRPR mutants (Homo sapiens, UniProt P49683, D302A/E213A/H321A/Q141A); test: PrRP-20-induced calcium mobilization, receptor mutants; format: cell-based; settings: HEK293, Fluo-4, mean ± S.E.M., n ≥ 3
T4 construct: expressed in transfected cells; host or cells: HEK293, transient transfection by electroporation
T4 sequence (P49683 1-370 Q141A/E213A/D302A/H321A): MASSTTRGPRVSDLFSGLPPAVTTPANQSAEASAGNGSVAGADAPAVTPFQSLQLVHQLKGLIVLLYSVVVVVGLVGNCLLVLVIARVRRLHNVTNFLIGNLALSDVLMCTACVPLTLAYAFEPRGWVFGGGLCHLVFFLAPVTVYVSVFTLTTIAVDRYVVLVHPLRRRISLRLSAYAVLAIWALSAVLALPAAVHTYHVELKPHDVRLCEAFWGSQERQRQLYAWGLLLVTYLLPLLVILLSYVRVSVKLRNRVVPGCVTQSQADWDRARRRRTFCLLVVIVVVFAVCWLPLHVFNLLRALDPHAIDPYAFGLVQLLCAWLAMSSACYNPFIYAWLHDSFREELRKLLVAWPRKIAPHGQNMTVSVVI
Method: as §1, §2
For QRFPR, PrRPR, and KISS1R, HEK293 cells transfected with WT receptor or its mutants were seeded at a density of 4 × 10^4 per well into 96-well culture plates and incubated for 24 h at 37 °C in 5% CO2. For NPFF1R and NPFF2R, plasmids were transfected into HEK293 cells stably expressing Gα16. On the next day, cells were incubated with 2 μmol/L Fluo-4 AM in HBSS supplemented with 5.6 mmol/L D-glucose and 250 μmol/L sulfinpyrazone at 37 °C for 45 min. After washing, cells were added with 50 μL HBSS and incubated at room temperature for 10 min, then 25 μL agonist buffer was dispensed into the well using a FlexStation III microplate reader (Molecular Devices), and intracellular calcium change was recorded at an excitation wavelength of 485 nm and an emission wavelength of 525 nm. EC50 and Emax values for each curve were calculated by Prism 8.0 software (GraphPad Software).

[6] = system: QRFPR; settings: cited from earlier work
Excerpt: cDNA encoding the precursor or orthologue of 26RFa is detected in vertebrates, from fish[16], and phasianidae, to mammals. In humans, 26RFa and its N-terminal extended mature peptide 43RFa are extracted from the human brain, and mRNA of QRFPR is detected in the hypothalamus, vestibular nuclei, and other areas of the central nervous system. QRFPR is also detected in some peripheral organs[18],[19]. Both 26RFa and 43RFa are endogenous ligands for QRFPR (GPR103)[4],[18]. The amino acid sequences of 26RFa are conserved among mammalian species, with 26RFa from rats being slightly mor ... || Considerable efforts have been dedicated to elucidating the recognition mechanism of 26RFa by QRFPR. […] This segment served as a molecular scaffold for the development of low molecular weight peptides with enhanced potency and increased stability[21],[28]. […] Globally, the 26RFa segment (Gly20–Phe24) leans to TM2, but is far from TMs 5–7, leaving a large portion of unoccupied space lined by TMs 5–7 (Fig. 3a). Two glycines (Gly20, Gly21) are compactly packed into a crevice composed of residues on ECL1, ECL2, and the N-terminus (Fig. 3a). They moderately impact 26RFa activity, as substit ... || (+ 2 further places)

CC(C)C[C@H](NC(=O)CNC(=O)[C@H](Cc1ccccc1)NC(=O)[C@H](CO)NC(=O)[C@H](CC(N)=O)NC(=O)[C@H](Cc1c[nH]c2ccccc12)NC(=O)[C@H](CC(N)=O)NC(=O)[C@@H](N)Cc1ccc(O)cc1)C(=O)N[C@@H](CCCNC(=N)N)C(=O)N[C@@H](Cc1ccccc1)C(N)=O [KP-10]
Emax ([1]; HEK293, KISS1R E193^45.52A): 126 ± 6.2% | Emax ([1]; HEK293, KISS1R H309^7.39A): 89.6 ± 1% | Emax ([1]; HEK293, KISS1R Q122^3.32A): 12.8 ± 0.76% | EC50 ([1]; KISS1R E193^45.52A): 0.01 µM | EC50 ([1]; KISS1R H309^7.39A): 0.0174 µM | EC50 ([1]; KISS1R Q122^3.32A): 0.00513 µM | EC50 [2]: 0.00427 µM | Emax [2]: 100 ± 1.2%

pancreatic polypeptide [PP]
role of hydrogen bond of Tyr36 with Q^5.46 in activity [3]: crucial for NPY/PP activity | role of amide-surrounding residues (C^2.57, T^2.61, Q^3.32, Q/H^7.39) in activity [3]: critical for 26RFa and NPY/PP activities

Neuropeptide Y [NPY]
role of hydrogen bond of Tyr36 with Q^5.46 in activity [3]: crucial for NPY/PP activity | role of amide-surrounding residues (C^2.57, T^2.61, Q^3.32, Q/H^7.39) in activity [3]: critical for 26RFa and NPY/PP activities

TPDINPAWYASRGIRPVGRF-NH2 [PrRP-20, prolactin-releasing peptide]
EC50 [4]: 0.0011 µM | Emax [4]: 100 ± 3.9% | Emax ([5]; HEK293, PrRPR D302^6.59A): 124 ± 8.9% | Emax ([5]; HEK293, PrRPR E213^45.52A): 27.7 ± 0.37% | Emax ([5]; HEK293, PrRPR H321^7.39A): 19.7 ± 0.75% | Emax ([5]; HEK293, PrRPR Q141^3.32A): 49.2 ± 1.2% | EC50 ([5]; PrRPR D302^6.59A): 0.0112 µM | EC50 ([5]; PrRPR E213^45.52A): 0.115 µM | EC50 ([5]; PrRPR H321^7.39A): 0.0148 µM | EC50 ([5]; PrRPR Q141^3.32A): 0.00105 µM

26RFa from rats: 26RFa from rats; rat 26RFa (GenScript) used for the complex
potency, rat vs human 26RFa ([6]; calcium mobilization): slightly more potent than that from humans

26RFa (1–18): N-terminal segment of native 26RFa lacking the C-terminal octapeptide (QDEGSEATGFLPAAGEKT; QRF-amide; UniProt P83859 91-108, looked up, fragment)
ability to activate the receptor ([6]; 26RFa (1–18), lacks the C-terminal octapeptide): loses its ability to activate the receptor
